“And” between values parts separate entries of the source, which are not always exact repeats. Identical values can stand only once. Like-named read-outs stand apart in the source and are kept apart here.
How the values were obtained:
Assay type in all cases: cell-based
[1] = test system: Cercospora beticola; test: in vitro-Test with Cercospora beticola (microtiter growth inhibition); details: alone
Procedure: (§1) The degree of efficacy expressed in % is denoted: 0% means an efficacy, which corresponds to that of the control, while an efficacy of 100% means that no disease is observed.
(§2) If the actual fungicidal activity exceeds the calculated value, then the activity of the combination is super-additive, i.e. a synergistic effect exists. In this case, the efficacy, which was actually observed, must be greater than the value for the expected efficacy (E), that was calculated from the abovementioned formula.
(§3) Example: In Vitro-Test with Fungal Microorganisms
(§4) Wells of 96-well microtiter plates are filled with 10 μl of a preparation of test compound or compound combination in methanol+emulsifier alkylaryl-polyglycol-ether. Thereafter, the solvent is evaporated in a hood. At the next step, 100 μl of liquid potato dextrose medium is given into each well, that has been amended with an appropriate concentration of spores or mycelium suspension of the test fungus.
(§5) With the aid of a photometer, the extinction in all wells is measured at the wavelength of 620 nm.
(§6) The microtiter plates are incubated at 20° C. and 85% relative humidity. The inhibition of growth is determined again photometrically 3-5 days after the application. Efficacy is calculated in relation to the untreated control, 0% efficacy means fungal growth as high as in untreated control while 100% efficacy means no fungal growth is measured.

[2] = test system: Alternaria alternate; test: in vitro-Test with Alternaria alternate (microtiter growth inhibition)
Procedure: as §1, §2, §3, §4, §5, §6

[3] = test system: Botrytis cinerea; test: in vitro-Test with Botrytis cinerea (microtiter growth inhibition); details: for Efficacy: applied alone
Procedure: as §1, §2, §3, §4, §5, §6

[4] = test system: Cordana musae; test: in vitro-Test with Cordana musae (microtiter growth inhibition); details: single substance
Procedure: as §1, §2, §3, §4, §5, §6

[5] = test system: Diaporthe citri; test: in vitro-Test with Diaporthe citri (microtiter growth inhibition)
Procedure: as §2, §3, §4, §5, §6

[6] = test system: Parastagonospora nodorum; test: in vitro-Test with Parastagonospora nodorum (microtiter growth inhibition)
Procedure: as §1, §2, §3, §4, §5, §6

[7] = test system: Ustilago segetum var. avenae; test: in vitro-Test with Ustilago segetum var. avenae (microtiter growth inhibition)
Procedure: as §1, §2, §3, §4, §5, §6

Cc1ccc(C(F)(F)CNC(=O)c2c(Oc3cccc(C4CC4)c3F)nnc(Cl)c2C)c(C)c1 [Compound 1-655]
Efficacy % ([1]; 0.004 ppm): 0%
Efficacy % ([1]; 0.020 ppm): 0%
Efficacy % ([1]; 0.1 ppm): 0%
Efficacy % ([1]; 0.5 ppm): 7%

CC(O)(Cn1cncn1)c1ccc(Oc2ccc(Cl)cc2)cc1C(F)(F)F (stereo not shown) [mefentrifluconazole]
Efficacy % ([2]; 0.008 ppm, alone): 0%
Efficacy % ([2]; 1.0 ppm, alone): 100%
Efficacy ([3]; 0.04 ppm): 36%
Efficacy ([3]; 0.2 ppm): 63%
Efficacy ([3]; 1.0 ppm): 100%
Efficacy % ([1]; 0.04 ppm): 100%
Efficacy % ([1]; 0.2 ppm): 100%
Efficacy ([4]; 0.008 ppm): 0%
Efficacy ([4]; 1.0 ppm): 100%
Efficacy ([5]; applied alone, 0.04 ppm): 85%
Efficacy ([5]; applied alone, 0.2 ppm): 100%
Efficacy ([5]; applied alone, 1.0 ppm): 100%
Efficacy ([6]; 0.008 ppm): 85%
Efficacy ([6]; 0.04 ppm): 97%
Efficacy ([6]; 0.2 ppm): 99%
Efficacy ([6]; 1.0 ppm): 100%
Efficacy % ([7]; single compound, 0.008 ppm): 5%
Efficacy % ([7]; single compound, 0.2 ppm): 67%
Efficacy % ([7]; single compound, 1.0 ppm): 100%

CC(O)(Cn1cncn1)c1ccc(Oc2ccc(Cl)cc2)cc1C(F)(F)F (stereo not shown) [(1.055) mefentrifluconazole]
Efficacy % ([3]; single active at 0.008 ppm): 0%
Efficacy % ([3]; single active at 0.04 ppm): 9% and 0%
Efficacy % ([3]; single active at 0.2 ppm): 60% and 96%
Efficacy % ([3]; single active at 1.0 ppm): 100%
Efficacy % ([6]; compound alone, 0.008 ppm): 81%
Efficacy % ([6]; compound alone, 0.04 ppm): 98%
Efficacy % ([6]; compound alone, 0.2 ppm): 99%
Efficacy % ([7]; compound alone, 0.008 ppm): 34%
Efficacy % ([7]; compound alone, 0.04 ppm): 87%
Efficacy % ([7]; compound alone, 0.2 ppm): 98%
Efficacy % ([7]; compound alone, 1.0 ppm): 100%

mancozeb [Compound 5.013]
Efficacy ([2]; applied alone, 2 ppm): 6%
Efficacy ([2]; applied alone, 10 ppm): 95%
Efficacy % ([1]; 0.4 ppm): 0%
Efficacy % ([1]; 2 ppm): 100%
Efficacy % ([1]; 10 ppm): 100%
Efficacy ([5]; 0.4 ppm): 1%
Efficacy ([5]; 2 ppm): 45%
Efficacy ([5]; 10 ppm): 100%
Efficacy ([5]; applied alone, 0.080 ppm): 0% and 3%
Efficacy ([5]; applied alone, 0.4 ppm): 0%
Efficacy ([5]; applied alone, 2 ppm): 52% and 53%
Efficacy ([5]; applied alone, 10 ppm): 100%
Efficacy % ([7]; single compound, 0.08 ppm): 1%
Efficacy % ([7]; single compound, 2 ppm): 5%
Efficacy % ([7]; single compound, 10 ppm): 100%

propineb
Efficacy % ([2]; 0.8 ppm, alone): 18% and 11%
Efficacy % ([2]; 4 ppm, alone): 32% and 21%
Efficacy % ([2]; 20 ppm, alone): 66% and 71%
Efficacy % ([2]; 100 ppm, alone): 92%
Efficacy ([2]; applied alone, 4 ppm): 56%
Efficacy ([2]; applied alone, 20 ppm): 73%
Efficacy ([2]; applied alone, 100 ppm): 96%
Efficacy ([4]; 0.8 ppm): 0%
Efficacy ([5]; 4 ppm): 23%
Efficacy ([5]; 20 ppm): 100%
Efficacy ([5]; 100 ppm): 97%
Efficacy ([5]; applied alone, 0.8 ppm): 0%
Efficacy ([5]; applied alone, 20 ppm): 98% and 100%
Efficacy ([5]; applied alone, 100 ppm): 100%
Efficacy % ([7]; single compound, 0.8 ppm): 4% and 6%
Efficacy % ([7]; single compound, 20 ppm): 100%
Efficacy % ([7]; single compound, 100.00 ppm): 79%

Fc1ccc(Oc2ccnc3cc(Cl)cc(Cl)c23)cc1 [Compound 13.005, quinoxyfen]
inhibition of growth at 0.08 ppm ([1]; Cercospora beticola, 0.08 ppm, read-out: Efficacy %): 0%
inhibition of growth at 0.4 ppm ([1]; Cercospora beticola, 0.4 ppm, read-out: Efficacy %): 2%
inhibition of growth at 10 ppm ([1]; Cercospora beticola, 10 ppm, read-out: Efficacy %): 20%
inhibition of growth at 2 ppm ([4]; Neocordana musae, 2 ppm, read-out: Efficacy): 1%
inhibition of growth at 10 ppm ([4]; Neocordana musae, 10 ppm, read-out: Efficacy): 15%
inhibition of growth at 0.4 ppm ([5]; Diaporthe citri, applied alone, 0.4 ppm, read-out: Efficacy): 0%
inhibition of growth at 10 ppm ([5]; Diaporthe citri, applied alone, 10 ppm, read-out: Efficacy): 54%

N#Cc1ccccc1NC(=O)c1snc(Cl)c1Cl [isotianil]
Efficacy % ([2]; 4 ppm, alone): 0%
Efficacy % ([2]; 20 ppm, alone): 7%
Efficacy % ([2]; 100 ppm, alone): 0%
Efficacy % ([1]; 0.8 ppm): 17%
Efficacy % ([1]; 4 ppm): 17%
Efficacy % ([1]; 20 ppm): 12%
Efficacy % ([1]; 100 ppm): 29%
Efficacy ([4]; 20 ppm): 3%
Efficacy ([4]; 100 ppm): 16%
Efficacy ([5]; 0.8 ppm): 0%
Efficacy ([5]; 4 ppm): 24%
Efficacy ([5]; 20 ppm): 0%
Efficacy ([5]; 100 ppm): 0%
Efficacy ([5]; applied alone, 0.8 ppm): 12%
Efficacy ([5]; applied alone, 4 ppm): 19% and 23%
Efficacy ([5]; applied alone, 20 ppm): 5% and 14%
Efficacy ([5]; applied alone, 100 ppm): 5%

OC(Cc1ccccc1Cl)(Cn1nc[nH]c1=S)C1(Cl)CC1 (stereo not shown) [prothioconazole]
inhibition of growth at 0.008 ppm ([2]; Alternaria, 0.008 ppm, alone, read-out: Efficacy %): 0%
inhibition of growth at 0.2 ppm ([2]; Alternaria, alone, read-out: Efficacy %): 100%
inhibition of growth at 1 ppm ([2]; Alternaria, 1.0 ppm, alone, read-out: Efficacy %): 100%
inhibition of growth at 0.04 ppm ([2]; Alternaria, applied alone, 0.04 ppm, read-out: Efficacy): 32%
inhibition of growth at 0.2 ppm ([2]; Alternaria, applied alone, read-out: Efficacy): 99%
inhibition of growth at 1 ppm ([2]; Alternaria, applied alone, 1.0 ppm, read-out: Efficacy): 100%
inhibition of growth at 0.008 ppm ([1]; Cercospora beticola, 0.008 ppm, read-out: Efficacy %): 0%
inhibition of growth at 0.04 ppm ([1]; Cercospora beticola, 0.04 ppm, read-out: Efficacy %): 88%
inhibition of growth at 0.008 ppm ([4]; Neocordana musae, 0.008 ppm, read-out: Efficacy): 0%
inhibition of growth at 0.04 ppm ([4]; Neocordana musae, 0.04 ppm, read-out: Efficacy): 64%
inhibition of growth at 0.2 ppm ([4]; Neocordana musae, 0.2 ppm, read-out: Efficacy): 100%

CCCOc1nc2ccc(I)cc2c(=O)n1CCC [proquinazid]
Efficacy % ([2]; 0.08 ppm, alone): 0%
Efficacy % ([2]; 0.4 ppm, alone): 0%
Efficacy % ([2]; 2 ppm, alone): 0%
Efficacy % ([2]; 10 ppm, alone): 0%
Efficacy ([3]; 0.4 ppm): 0%
Efficacy ([3]; 2 ppm): 0%
Efficacy ([3]; 10 ppm): 0%
Efficacy ([4]; 0.080 ppm): 0%
Efficacy ([4]; 0.4 ppm): 0%
Efficacy ([4]; 2 ppm): 0%
Efficacy ([5]; applied alone, 0.4 ppm): 11%
Efficacy ([5]; applied alone, 2 ppm): 0%

N#Cc1sc2c(=O)c3ccccc3c(=O)c=2sc1C#N [(5.010) dithianon]
Efficacy % ([3]; single active at 20 ppm): 100%
inhibition of growth at 0.8 ppm ([7]; compound alone, 0.8 ppm, read-out: Efficacy %): 11%
inhibition of growth at 20 ppm ([7]; compound alone, 20 ppm, read-out: Efficacy %): 98%

CCO[PH](=O)[O-].CCO[PH](=O)[O-].CCO[PH](=O)[O-].[Al+3] [fosetylaluminium]
Efficacy % ([2]; 4 ppm, alone): 8%
Efficacy % ([2]; 20 ppm, alone): 27%
Efficacy % ([2]; 100 ppm, alone): 37%
Efficacy ([4]; 0.8 ppm): 0%
Efficacy ([4]; 4 ppm): 12%
Efficacy ([4]; 20 ppm): 0%
Efficacy ([5]; applied alone, 0.8 ppm): 22%
Efficacy ([5]; applied alone, 4 ppm): 31%
Efficacy ([5]; applied alone, 20 ppm): 4%
Efficacy ([5]; applied alone, 100 ppm): 0%

Cn1cc(C(=O)Nc2ccc(F)cc2-c2ccc(Cl)c(Cl)c2)c(C(F)F)n1 [(2.002) bixafen]
Efficacy % ([3]; single active at 0.008 ppm): 9%
Efficacy % ([3]; single active at 0.04 ppm): 42%
Efficacy % ([3]; single active at 0.2 ppm): 55% and 67%
Efficacy % ([3]; single active at 1.0 ppm): 67% and 73%
Efficacy % ([6]; compound alone, 0.04 ppm): 3%

O=C1C2CC=CCC2C(=O)N1SC(Cl)(Cl)Cl (stereo not shown) [(5.003) captan]
inhibition of growth at 4 ppm ([3]; Botrytis cinerea, single active at 4 ppm, read-out: Efficacy %): 20%
inhibition of growth at 4 ppm ([6]; Parastagonospora nodorum, compound alone, 4 ppm, read-out: Efficacy %): 54%
inhibition of growth at 20 ppm ([6]; Parastagonospora nodorum, compound alone, 20 ppm, read-out: Efficacy %): 100%

Cc1cc(C)nc(Nc2ccccc2)n1 [pyrimethanil]
inhibition of growth at 0.8 ppm ([2]; Alternaria, 0.8 ppm, alone, read-out: Efficacy %): 88%
inhibition of growth at 4 ppm ([2]; Alternaria, 4 ppm, alone, read-out: Efficacy %): 99%
inhibition of growth at 20 ppm ([2]; Alternaria, 20 ppm, alone, read-out: Efficacy %): 100%
inhibition of growth at 0.8 ppm ([2]; Alternaria, applied alone, 0.8 ppm, read-out: Efficacy): 100%
inhibition of growth at 4 ppm ([2]; Alternaria, applied alone, 4 ppm, read-out: Efficacy): 100%
inhibition of growth at 20 ppm ([2]; Alternaria, applied alone, 20 ppm, read-out: Efficacy): 100%
Efficacy ([3]; 0.8 ppm): 96%
Efficacy ([3]; 4 ppm): 99%
inhibition of growth at 0.8 ppm ([1]; Cercospora beticola, 0.8 ppm, read-out: Efficacy %): 0%
inhibition of growth at 20 ppm ([1]; Cercospora beticola, 20 ppm, read-out: Efficacy %): 100%
inhibition of growth at 0.8 ppm ([4]; Neocordana musae, 0.8 ppm, read-out: Efficacy): 9%
inhibition of growth at 20 ppm ([4]; Neocordana musae, 20 ppm, read-out: Efficacy): 15%
inhibition of growth at 4 ppm ([5]; Diaporthe citri, applied alone, 4 ppm, read-out: Efficacy): 94%
Efficacy ([6]; 0.8 ppm): 100%
Efficacy ([6]; 4 ppm): 100%

COc1ccnc(C(=O)N[C@H]2COC(=O)[C@H](Cc3ccccc3)[C@@H](OC(=O)C(C)C)[C@H](C)OC2=O)c1OCOC(=O)C(C)C [(3.025) fenpicoxamid]
Efficacy % ([3]; single active at 0.04 ppm): 0%
Efficacy % ([3]; single active at 0.2 ppm): 13%
Efficacy % ([3]; single active at 1.0 ppm): 0%
Efficacy % ([3]; single active at 5.0 ppm): 34%
Efficacy % ([7]; compound alone, 0.04 ppm): 3%
Efficacy % ([7]; compound alone, 0.2 ppm): 0%
Efficacy % ([7]; compound alone, 1.0 ppm): 0%
Efficacy % ([7]; compound alone, 5.0 ppm): 0%
